Source: patent US20240018132A1, “5-HYDROXY-1,4-NAPHTHALENEDIONE FOR USE IN THE TREATMENT OF CANCER” (GODAVARI BIOREFINERIES LIMITED, priority 2020, published 2024)
Like-named read-outs stand apart in the source and are kept apart here.

Legend:
MDAMB231 [1] = test: In vitro antiproliferative assay (MTT assay), breast cancer cell line; type: cell-based; conditions: MTT assay, breast cancer MDAMB231, 48 hrs drug incubation
Outline: (§1)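 Growth inhibition determined by MTT (0.5 mg/ml, 4 h) following 48 h compound treatment of cells plated 24 h earlier at 37 °C, 5% CO2.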

PC3 [2] = test: In vitro antiproliferative assay (MTT assay), prostate cancer cell line; type: cell-based; conditions: MTT assay, prostate cancer PC3, 48 hrs drug incubation
Outline: as §1

MDAMB231 [3] = test: Soft agar colony-formation assay, breast cancer; type: cell-based; conditions: for anticancer activity in comparison with cisplatin, soft agar, breast cancer cell line: FIG. 51, MDAMB231; for IC50: Homo sapiens, MDA-MB-231, 168 h, Soft Agar Assay, 1 week, Alamar Blue
Method: (§2) The Soft Agar Colony-formation Assay is an anchorage-independent growth assay in soft agar, which is one of the most stringent assays for detecting malignant transformation of cells. For this assay, malignant cells are cultured with appropriate controls in soft agar medium for 1-2 weeks. Following this incubation period, formed colonies can either be analyzed morphologically using cell stain and quantifying the number of colonies formed.
(§3) Briefly, for Soft Agar Assay a mixture of 50 ul of 2× medium (taken appropriately as per cell line) and 50 ul of 1.2% Bacto Agar were plated on to each well of 96 well micro titer assay plate. 10 ul of cells (of specific plating efficiency pre standardized for respective cell line) were mixed with 20 ul of 2× medium and 30 ul of 0.8% of Bacto Agar and 1.6 ul of drug (of appropriate concentration) in a vial and transferred to the solidified pre layers of the assay plates. The cells were then allowed to grow and form colonies at 37° C. and 5% CO2 for 1 week. An intermittent feeding with 50 ul of appropriate 2× medium was performed after 3 days of experimental set up. 16 ul of Alamar Blue (1.5 mg/ml) was then added to all the wells to quantify the developed colonies. The plates were incubated for 24 hrs at 37° C. Absorbance was then measured at 630 nm. XY graph of log Percent viability was then plotted against log drug concentration.
(§4) Following plating efficiencies were standardized for Soft Agar Assay: […]

PC3 [4] = test: Soft agar colony-formation assay, prostate cancer; type: cell-based; conditions: for anticancer activity in comparison with cisplatin, soft agar, prostate cancer cell line: FIG. 52, PC3; for IC50: Homo sapiens, PC-3, 168 h, Soft Agar Assay, 1 week, Alamar Blue
Method: as §2, §3, §4

Human lymphocytes = test: Lymphocyte assay (MTT on normal cells); type: cell-based; conditions: human peripheral blood lymphocytes, MTT procedure; for IC50: Lymphocyte
Method: Human lymphocytes were isolated from the peripheral blood. A pure population of lymphocytes was obtained based on differential centrifugation, in which diluted defibrinated blood was layered on a solution of sodium diatrizoate and polysucrose (HiSep LSM 1077) and centrifuged at low speeds for 30 mins.
Procedure: The separation of lymphocytes from fresh defibrinated blood was performed by the procedure described below: • 1. Diluted defibrinated fresh blood was overlaid gradually on (HiSeP LSM1077) and centrifuged at low speed for 30 mins. • 2. The lymphocyte layer (the buffy coat) was carefully removed in a new collection tube. • 3. The buffy coat was given another wash, by the diluent buffer Dulbecco's phosphate buffered saline (D.P.B.S) • 4. The supernatant was discarded and the pellet was resuspended in D.P.B.S. • 5. The viability of cells was checked by Haemocytometer. • 6. Cells with purity and viability of more than 95% were taken for the experiment. • 7. Purified lymphocytes were diluted at a concentration of 0.7 million/ml with sterile D.P.B.S and MTT procedure was performed exactly as described earlier.

MDAMB231 [5] = test: Wound Healing Assay (WHA), breast cancer cell line; type: cell-based; conditions: IC10 conc. of compound
Method: (§5) Wound Healing Assay (WHA) determines the ability of cancer stem cells to heal the wound formed in a confluent monolayer.
(§6) Procedure: 0.35×10^6 cells were plated in each well of 6 Tissue Culture well plates. The plate was incubated for 48 hrs at 37° C., 5% CO2. […] IC10 conc. of the respective compound was added into each well. The plates were incubated at 37° C., 5% CO2 and the width of scratch was measured at various time intervals such as 6, 24 and 48 hours. Average of 3 distances were taken for each time point using IS camera Measure. A plot of average width of scratch in micrometer was plotted against the time interval after treatment.

PC3 [6] = test: Wound Healing Assay (WHA), prostate cancer cell line; type: cell-based; conditions: IC10 conc. of compound
Method: as §5, §6

MDAMB231 [7] = test: In vitro sphere-forming assay (cancer stem cells), Mammosphere media; conditions: for viability at 0.0025 µM / viability at 0.025 µM / viability at 0.25 µM / viability at 2.5 µM / viability at 25 µM: Homo sapiens, MDA-MB-231, read-out: % Viability of spheres (MDAMB231); for 3D sphere count of MDAMB231: Mammosphere media, 2000 cells/well, n = 6 ± S.D
Method: (§7) In Vitro Sphere-forming Assay: Sphere assay measures the ability of cancer stem cells (CSCs) to form spheres in specially designed serum-free medium.
(§8) Mammosphere Media Preparation (For 100 mL): 1 g methyl cellulose autoclaved with magnetic stirrer, 100 ml plain media (MEBM) was added and dissolved under magnetic stirring. After complete dissolution FGF-80 μL, EGF-40 μL, Penstrep-1 mL, Heparin-400 μL was added.
(§9) Procedure—The cells were trypsinised and made into single-cell suspension by passing through cell strainers (100 μl and 40 μl, respectively), The cells were diluted at a concentration of 2000 cells/100 μL and suspended in either Mammosphere (for breast cell lines) or Prostosphere (for prostate cell lines). 100 μL of this suspension was added into each well of 96-well suspension plates and incubated at 37° C., 5% CO2 for 24 hrs. Appropriate concentrations of the drugs (2 μL) were added into respective wells with 100 μL of stem cell culture medium. Plates were incubated at 37° C., 50 CO2 for 72 hrs. After incubation, 2.5 μL of the respective drug concentration and 50 μL of stem cell culture medium were added into each well and the plates were further incubated at 37° C., 50% CO2 for 72 hrs. 3 μL of the respective drug concentration was added with 50 μL of stem cell culture medium again after incubation and plates were reincubated for 72 hrs at 37° C., 50 CO2. Number of primary spheres formed for each concentration were counted. The spheres were converted to 0 viability of spheres compared to untreated (Growth Control with DMSO, GCD).

PC3 [8] = test: In vitro sphere-forming assay (cancer stem cells), Prostosphere media; conditions: for viability at 0.0025 µM / viability at 0.025 µM / viability at 0.25 µM / viability at 2.5 µM / viability at 25 µM: Homo sapiens, PC-3, read-out: % Viability of spheres (PC3); for 3D sphere count of PC3: Prostosphere media, 2000 cells/well, n = 6 ± S.D
MDAMB231 [9] = conditions: human, 216 h
Method: as §7, §8, §9

PC3 [10] = conditions: human, 216 h

| Compound | IC50 (MDAMB231 [1]; Homo sapiens, MDA-MB-231, 48 h) [µM] | anticancer activity in comparison with cisplatin, soft agar, breast cancer cell line (MDAMB231 [3]) | IC50 (MDAMB231 [3]) [µM] | anticancer activity in comparison with cisplatin, soft agar, prostate cancer cell line (PC3 [4]) | IC50 (PC3 [4]) [µM] | viability at 0.0025 µM (MDAMB231 [7]) [%] | viability at 0.025 µM (MDAMB231 [7]) [%] | viability at 0.25 µM (MDAMB231 [7]) [%] | viability at 2.5 µM (MDAMB231 [7]) [%] | viability at 25 µM (MDAMB231 [7]) [%] | 3D sphere count of MDAMB231 (MDAMB231 [7]; drug 0.0025 uM) | 3D sphere count of MDAMB231 (MDAMB231 [7]; drug 0.025 uM) | 3D sphere count of MDAMB231 (MDAMB231 [7]; drug 0.25 uM) | 3D sphere count of MDAMB231 (MDAMB231 [7]; drug 2.5 uM) | 3D sphere count of MDAMB231 (MDAMB231 [7]; drug 25 uM) | 3D sphere count of PC3 (PC3 [8]; drug 0.0025 uM) | 3D sphere count of PC3 (PC3 [8]; drug 0.025 uM) | 3D sphere count of PC3 (PC3 [8]; drug 0.25 uM) | 3D sphere count of PC3 (PC3 [8]; drug 2.5 uM) | 3D sphere count of PC3 (PC3 [8]; drug 25 uM) | further results |
| --- | --- | --- | --- | --- | --- | --- | --- | --- | --- | --- | --- | --- | --- | --- | --- | --- | --- | --- | --- | --- | --- |
| COc1ccc(OC2=CC(=O)c3c(OCCN4CCOCC4)cccc3C2=O)cc1 [Formula 43, 5-(2-morpholinoethoxy)-2-(4-methoxyphenoxy) naphthalene-1,4-dione] | 1.01 | higher anticancer activity in comparison with cisplatin | 0.662 | higher anticancer activity in comparison with cisplatin | 0.415 | 82 | 61 | 46 | 33 | 21 | 82(±4) | 61(±3) | 46(±3) | 33(±4) | 21(±3) | 75(±4) | 57(±5) | 46(±4) | 30(±4) | 21(±3) | IC50 (PC3 [2]): 0.5 µM; IC50 (Human lymphocytes): 10.8 µM; % inhibition of Wound Healing for Breast Cancer Cell line (MDAMB231) after 48 hrs (MDAMB231 [5]): 53.3%; % inhibition of Wound Healing for Prostate Cancer Cell line (PC3) after 48 hrs (PC3 [6]): 50.47%; viability at 0.0025 µM (PC3 [8]): 75%; viability at 0.025 µM (PC3 [8]): 57%; viability at 0.25 µM (PC3 [8]): 46%; viability at 2.5 µM (PC3 [8]): 30%; viability at 25 µM (PC3 [8]): 21% |
| CCN(CC)CCNC(=O)COc1cccc2c1C(=O)C=C(Nc1ccc(OC)cc1)C2=O [Formula 72] | 1.01 | higher anticancer activity in comparison with cisplatin | 3.72 | higher anticancer activity in comparison with cisplatin | 0.6 | 84 | 67 | 48 | 33 | 19 | 60(±3) | 48(±3) | 34(±3) | 24(±2) | 14(±3) | 65(±3) | 51(±3) | 37(±3) | 29(±2) | 13(±3) | IC50 (PC3 [2]; Homo sapiens, PC-3, 48 h): 0.743 µM; IC50 (Human lymphocytes): 33 µM; viability at 0.0025 µM (PC3 [8]): 81%; viability at 0.025 µM (PC3 [8]): 63%; viability at 0.25 µM (PC3 [8]): 46%; viability at 2.5 µM (PC3 [8]): 36%; viability at 25 µM (PC3 [8]): 16% |
| O=C1C=C(N2CCOCC2)C(=O)c2c(OCCN3CCOCC3)cccc21 [Formula 73] | 2.18 | higher anticancer activity in comparison with cisplatin | 3.77 | higher anticancer activity in comparison with cisplatin | 2.68 | 87 | 70 | 50 | 35 | 19 | 62(±4) | 50(±3) | 36(±4) | 25(±3) | 14(±3) | 69(±2) | 55(±3) | 40(±3) | 29(±3) | 19(±3) | IC50 (PC3 [2]; Homo sapiens, PC-3, 48 h): 3.05 µM; Activity on Lymphocytes (IC50) (Human lymphocytes): No activity; viability at 0.0025 µM (PC3 [8]): 86%; viability at 0.025 µM (PC3 [8]): 68%; viability at 0.25 µM (PC3 [8]): 50%; viability at 2.5 µM (PC3 [8]): 36%; viability at 25 µM (PC3 [8]): 23% |
| COc1ccc(OC2=CC(=O)c3c(OCCN4CCOCC4)cccc3C2=O)cc1 [Formula 81] |  |  |  |  |  |  |  |  |  |  | 82(±4) | 61(±3) | 46(±3) | 33(±4) | 21(±3) | 75(±4) | 57(±5) | 46(±4) | 30(±4) | 21(±3) | IC50 (MDAMB231 [1]): 0.631 µM; IC50 (PC3 [2]): 2.19 µM; % Viability of spheres (MDAMB231) (MDAMB231 [9]; 0.0025 uM): 82(±4) %; % Viability of spheres (MDAMB231) (MDAMB231 [9]; 0.025 uM): 61(±3) %; % Viability of spheres (MDAMB231) (MDAMB231 [9]; 0.25 uM): 46(±3) %; % Viability of spheres (MDAMB231) (MDAMB231 [9]; 2.5 uM): 33(±4) %; % Viability of spheres (MDAMB231) (MDAMB231 [9]; 25 uM): 21(±3) %; % Viability of spheres (PC3) (PC3 [10]; 0.0025 uM): 75(±4) %; % Viability of spheres (PC3) (PC3 [10]; 0.025 uM): 57(±5) %; % Viability of spheres (PC3) (PC3 [10]; 0.25 uM): 46(±4) %; % Viability of spheres (PC3) (PC3 [10]; 2.5 uM): 30(±4) %; % Viability of spheres (PC3) (PC3 [10]; 25 uM): 21(±3) % |
